Drawing on patent US12479830B2, “Homopiperazinyl and homopiperidinyl quinazolin-4(3H)-one derivatives having multimodal activity against pain” (ESTEVE PHARMACEUTICALS, S.A., priority 2019, dated 2025), this text covers Ki for seven compounds.

Test [1] concerns the target Human α2δ-1 subunit of Cav2.2 calcium channel (Homo sapiens, UniProt P54289). The test is described as follows: Human α2δ-1 subunit of Cav2.2 calcium channel assay ([3H]-gabapentin binding). Conditions: binding to the α2δ-1 subunit of voltage-gated calcium channels, expressed as Ki class; + also covers inhibition between 1% and 50%. Summed up: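 Human α2δ-1 enriched membranes (2.5 μg) incubated 60 min at 27° C. with 15 nM [3H]-gabapentin in 10 mM Hepes-KOH pH 7.4; non-specific binding with 10 μM pregabalin. Filtration binding; % inhibition at 1 or 10 μM, or Ki from five concentrations.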

Test [2] addresses T1, Human σ1 receptor (Homo sapiens, UniProt Q99720).
T1 construct: expressed in transfected cells; host or cells: HEK-293
Kind of test: Human σ1 receptor radioligand assay ([3H](+)-pentazocine binding). Conditions: binding to the σ1 receptor, expressed as Ki class; + also covers inhibition between 1% and 50%. The method in brief: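 Membranes (7 μg) were incubated with 5 nM [3H](+)-pentazocine in 50 mM Tris-HCl pH 8 for 120 min at 37° C. Non-specific binding was defined with 10 μM haloperidol. Values are % inhibition at 1 or 10 μM or Ki from five concentrations, read by filtration and scintillation counting.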

Molecules are shown by their SMILES.

T1 sequence (Q99720 whole entry): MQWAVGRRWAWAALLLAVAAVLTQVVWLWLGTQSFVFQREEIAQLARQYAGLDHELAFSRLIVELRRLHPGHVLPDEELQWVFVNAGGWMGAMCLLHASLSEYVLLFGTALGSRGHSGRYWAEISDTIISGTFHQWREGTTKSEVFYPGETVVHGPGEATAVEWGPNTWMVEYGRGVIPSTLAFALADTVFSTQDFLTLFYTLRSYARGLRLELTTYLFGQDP
Human α2δ-1 subunit of Cav2.2 calcium channel, sequence (P54289 25-1103): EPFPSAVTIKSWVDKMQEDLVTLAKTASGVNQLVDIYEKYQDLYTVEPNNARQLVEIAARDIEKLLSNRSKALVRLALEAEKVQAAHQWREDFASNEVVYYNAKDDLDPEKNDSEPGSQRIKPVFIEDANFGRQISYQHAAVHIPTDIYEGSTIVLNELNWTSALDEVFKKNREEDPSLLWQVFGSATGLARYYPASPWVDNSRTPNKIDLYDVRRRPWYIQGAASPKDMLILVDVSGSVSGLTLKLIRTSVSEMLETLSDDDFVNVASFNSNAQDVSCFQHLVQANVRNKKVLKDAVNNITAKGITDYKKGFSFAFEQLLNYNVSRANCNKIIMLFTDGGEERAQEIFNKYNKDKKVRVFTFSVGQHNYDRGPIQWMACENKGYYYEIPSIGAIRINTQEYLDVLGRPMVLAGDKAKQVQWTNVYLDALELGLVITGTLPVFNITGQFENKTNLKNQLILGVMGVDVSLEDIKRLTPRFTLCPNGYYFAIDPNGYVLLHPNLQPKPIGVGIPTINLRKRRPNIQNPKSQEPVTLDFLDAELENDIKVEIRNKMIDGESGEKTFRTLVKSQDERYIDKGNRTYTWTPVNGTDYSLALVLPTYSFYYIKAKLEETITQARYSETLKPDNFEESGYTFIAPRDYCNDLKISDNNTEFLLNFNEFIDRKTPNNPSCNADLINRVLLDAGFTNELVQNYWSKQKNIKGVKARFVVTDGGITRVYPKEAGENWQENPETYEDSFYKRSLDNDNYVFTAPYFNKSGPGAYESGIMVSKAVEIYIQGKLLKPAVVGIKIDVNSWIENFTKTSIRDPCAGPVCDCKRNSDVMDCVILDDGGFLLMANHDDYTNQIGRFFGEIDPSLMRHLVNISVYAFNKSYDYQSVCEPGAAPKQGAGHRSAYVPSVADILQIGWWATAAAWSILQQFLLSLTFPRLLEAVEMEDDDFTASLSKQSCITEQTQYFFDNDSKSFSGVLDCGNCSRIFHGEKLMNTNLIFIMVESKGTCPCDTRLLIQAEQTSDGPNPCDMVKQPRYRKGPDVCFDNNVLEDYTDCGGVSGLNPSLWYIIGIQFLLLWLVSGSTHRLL

For orientation: Ki means a measure of affinity in units of concentration, obtained from inhibition or displacement. Turning to `CCC[C@H](c1nc2ccc(Br)cc2c(=O)n1CC)N1CC[C@H](C)N(C)CC1` [Example 262], the Ki in test [1] was < 500 nM; in test [2], 500 to 1000 nM.

In the case of `CCC[C@@H](c1nc2ccc(Br)cc2c(=O)n1CC)N1CC[C@H](C)N(C)CC1` [Example 263], the Ki in test [1] is > 5000 nM; in test [2], > 1000 nM.

Take `CCCC(c1nc2ccc(F)cc2c(=O)n1CC)C1CCCNCC1` (centres unmarked) [Example 266, 2-(1-(Azepan-4-yl)butyl)-3-ethyl-6-fluoroquinazolin-4(3H)-one]: the Ki in test [1] is < 500 nM; in test [2], > 1000 nM.

For `CCCC(c1nc2ccc(F)cc2c(=O)n1CC)C1CCCN(C)CC1` (centres unmarked) [Example 267, 3-ethyl-6-fluoro-2-(1-(1-methylazepan-4-yl)butyl)quinazolin-4(3H)-one], the Ki in test [1] is < 500 nM; in test [2], 500 to 1000 nM.

With `CCCC(c1nc2ccc(F)cc2c(=O)n1CC)C1CCCN(CC)CC1` (centres unmarked) [Example 268, 3-ethyl-2-(1-(1-ethylazepan-4-yl)butyl)-6-fluoroquinazolin-4(3H)-one], the Ki in test [1] was 500 to 5000 nM; in test [2], < 500 nM.

On to `CC[C@@H]1CCn2c(nc3ccc(Br)cc3c2=O)[C@H]1N1CCCN(C)CC1` [Example 269, (6S,7R)-2-Bromo-7-ethyl-6-(4-methyl-1,4-diazepan-1-yl)-8,9-dihydro-6H-pyrido[2,1-b]quinazolin-11(7H)-one], for which the Ki in test [1] was > 5000 nM; in test [2], 500 to 1000 nM.

In the case of `CC[C@H]1CCn2c(nc3ccc(Br)cc3c2=O)[C@@H]1N1CCCN(C)CC1` [Example 270, (6R,7S)-2-bromo-7-ethyl-6-(4-methyl-1,4-diazepan-1-yl)-8,9-dihydro-6H-pyrido[2,1-b]quinazolin-11(7H)-one], the results for the Ki in test [1] and in test [2] were > 5000 nM and 500 to 1000 nM, respectively.
